Target: T1, rat mGluR5 (Rattus norvegicus, UniProt P31424)
T1 construct: expressed in transfected cells
Assay: mGluR5 assay on HEK-expressing rat mGluR5 (fluorescent cell based Ca2+ mobilization assay)
Conditions: HEK-293 cells stably expressing rat mGluR5; no co-addition of glutamate; mean of at least three independent experiments in duplicate; read-out: Ca++ Flux (mean EC50)
Experimental: mGluR5 Assay on HEK-Expressing Rat mGluR5
Positive functional expression of HEK-293 cells stably expressing rat mGluR5 receptor was determined by measuring intracellular Ca^2+ changes using a Fluorometric Imaging Plate Reader (FLIPR, Molecular Devices, Sunnyvale, Calif.) in response to glutamate or selective known mGluR5 agonists and antagonists. Rat mGluR5 RT-PCR products in HEK-293 cells were sequenced and found 100% identical to rat mGluR5 Genbank reference sequence (NM_017012). HEK-293 cells expressing rmGluR5 were maintained in media containing DMEM, dialyzed Fetal Bovine Serum (10%), Glutamax™ (2 mM), Penicillin (100 units/ml), Streptomycin (100 μg/ml), Geneticin (100 μg/ml) and Hygromycin-B (40 μg/ml) at 37° C./5% CO2.
After one day of incubation, cells were washed with assay buffer containing: 142 mM NaCl, 6 mM KCl, 1 mM […], 1 mM CaCl2, 20 mM HEPES, 1 g/L glucose, 0.125 mM sulfinpyrazone, pH 7.4. After 60 min of loading with 4 uM Fluo-4 (TefLabs, Austin, Tex.), the cells were washed three times with 50 μl of PBS Buffer and resuspended in 45 μl of assay Buffer. The plates were then transferred to a Fluorometric Imaging Plate Reader (FLIPR, Molecular Devices, Sunnyvale, Calif.) for the assessment of intracellular calcium flux. After monitoring the baseline fluorescence for 10 seconds, increasing concentrations of representative compound (from 0.01 to 60 μM) of the present invention diluted in Assay Buffer (15 μl of 4× dilutions) was added to the cell. The final DMSO concentration in the assay was 0.3%. In each experiment, fluorescence was then monitored as a function of time for 3 minutes and the data analyzed using Microsoft Excel and GraphPad Prism. Each data point was also measured two times.
Under these experimental conditions, this HEK-rat mGluR5 cell line is able to directly detect positive allosteric modulators without the need of co-addition of glutamate or mGluR5 agonist.
The concentration-response curves of representative compounds of the present invention were generated using the Prism GraphPad software (Graph Pad Inc, San Diego, USA). The curves were fitted to a four-parameter logistic equation:
(Y=Bottom+(Top−Bottom)/(1+10̂((Log EC50−X)*Hill Slope)
allowing determination of EC50 values.
The Table 1 below represents the mean EC50 obtained from at least three independent experiments of selected molecules performed in duplicate.

T1 sequence (P31424 21-1171 isoform P31424-2 limits assumed): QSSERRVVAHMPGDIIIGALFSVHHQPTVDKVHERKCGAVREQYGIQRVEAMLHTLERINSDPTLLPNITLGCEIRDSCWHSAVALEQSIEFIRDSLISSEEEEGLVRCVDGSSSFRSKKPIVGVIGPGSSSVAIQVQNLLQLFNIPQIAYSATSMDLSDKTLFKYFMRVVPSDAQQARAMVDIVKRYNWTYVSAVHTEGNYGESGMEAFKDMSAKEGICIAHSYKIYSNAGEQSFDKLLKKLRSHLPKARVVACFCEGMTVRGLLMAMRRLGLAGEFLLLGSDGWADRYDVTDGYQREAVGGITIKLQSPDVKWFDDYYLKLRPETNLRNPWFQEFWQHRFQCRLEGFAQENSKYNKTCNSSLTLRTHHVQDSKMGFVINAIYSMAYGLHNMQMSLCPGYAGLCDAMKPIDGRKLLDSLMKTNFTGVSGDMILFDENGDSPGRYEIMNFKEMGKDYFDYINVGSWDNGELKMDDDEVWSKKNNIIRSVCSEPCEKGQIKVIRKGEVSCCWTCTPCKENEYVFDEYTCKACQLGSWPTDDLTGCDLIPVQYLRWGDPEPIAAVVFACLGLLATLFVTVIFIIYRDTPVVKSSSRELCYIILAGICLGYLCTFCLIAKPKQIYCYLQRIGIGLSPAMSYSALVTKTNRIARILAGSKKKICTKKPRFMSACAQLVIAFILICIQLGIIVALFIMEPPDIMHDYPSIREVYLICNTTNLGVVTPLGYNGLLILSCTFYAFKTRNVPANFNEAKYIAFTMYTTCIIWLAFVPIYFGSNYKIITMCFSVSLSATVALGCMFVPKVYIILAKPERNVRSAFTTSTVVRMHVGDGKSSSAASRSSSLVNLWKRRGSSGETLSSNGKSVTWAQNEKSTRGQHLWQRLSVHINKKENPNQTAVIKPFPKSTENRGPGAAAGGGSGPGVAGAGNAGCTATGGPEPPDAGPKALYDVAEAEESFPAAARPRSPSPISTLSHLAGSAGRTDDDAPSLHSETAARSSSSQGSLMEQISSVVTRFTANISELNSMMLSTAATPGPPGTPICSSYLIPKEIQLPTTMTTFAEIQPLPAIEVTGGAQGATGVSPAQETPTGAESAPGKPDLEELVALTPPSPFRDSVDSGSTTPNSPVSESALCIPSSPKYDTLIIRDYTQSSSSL

Structure (SMILES)	EC50 [µM]
O=C(c1ccc(F)cc1)N1CCCC1Cc1nc(-c2ccc(F)cc2)no1 (stereo not drawn) [Example 2, (4-Fluoro-phenyl)-{2-[3-(4-fluoro-phenyl)-[1,2,4]oxadiazol-5-ylmethyl]-pyrrolidin-1-yl}-methanone]	1 to 10
N#Cc1cc(C(=O)N2CCC[C@H](c3nc(-c4ccc(F)cc4)no3)C2)ccc1F [Example 3, 2-Fluoro-5-{(S)-3-[3-(4-fluoro-phenyl)-[1,2,4]oxadiazol-5-yl]-piperidine-1-carbonyl}-benzonitrile]	1 to 10
O=C(C1CCSCC1)N1CCC[C@H](c2nc(-c3ccc(F)cc3)no2)C1 [Example 7, {(S)-3-[3-(4-Fluoro-phenyl)-[1,2,4]oxadiazol-5-yl]-piperidin-1-yl}-(tetrahydro-thiopyran-4-yl)-methanone]	1 to 10
Cc1cc(F)ccc1C(=O)N1CCC[C@H](c2nc(-c3ccncc3)no2)C1 [Example 53, (4-Fluoro-2-methyl-phenyl)-[(S)-3-(3-pyridin-4-yl-[1,2,4]oxadiazol-5-yl)-piperidin-1-yl]-methanone]	1 to 10
O=C(c1ccccc1NCc1ccccc1)N1CCC[C@H](c2nc(-c3ccc(F)cc3)no2)C1 [Example 55, (2-Benzylamino-phenyl)-{(S)-3-[3-(4-fluoro-phenyl)-[1,2,4]oxadiazol-5-yl]-piperidin-1-yl}-methanone]	> 10
O=C(c1ccc(F)cc1)N1CCC[C@H](c2nc(-c3cnccn3)no2)C1 [Example 57, (4-Fluoro-phenyl)-[(S)-3-(3-pyrazin-2-yl-[1,2,4]oxadiazol-5-yl)-piperidin-1-yl]-methanone]	> 10
Cc1cc(F)ccc1C(=O)N1CCC[C@H](c2nc(-c3ccccc3)no2)C1 [Example 63, (4-Fluoro-2-methyl-phenyl)-[(S)-3-(3-phenyl-[1,2,4]oxadiazol-5-yl)-piperidin-1-yl]-methanone]	1 to 10
Cc1oncc1C(=O)N1CCC[C@H](c2nc(-c3ccc(F)cc3F)no2)C1 [Example 65, {(S)-3-[3-(2,4-Difluoro-phenyl)-[1,2,4]oxadiazol-5-yl]-piperidin-1-yl}-(5-methyl-isoxazol-4-yl)-methanone]	1 to 10
Cc1cc(F)ccc1C(=O)N1CCC[C@H](c2nc(-c3ccc(F)cc3F)no2)C1 [Example 67, {(S)-3-[3-(2,4-Difluoro-phenyl)-[1,2,4]oxadiazol-5-yl]-piperidin-1-yl}-(4-fluoro-2-methyl-phenyl)-methanone]	1 to 10
O=C(c1ccc(F)cc1F)N1CCC[C@H](c2nc(-c3ccc(F)cc3F)no2)C1 [Example 69, (2,4-Difluoro-phenyl)-{(S)-3-[3-(2,4-difluoro-phenyl)-[1,2,4]oxadiazol-5-yl]-piperidin-1-yl}-methanone]	1 to 10
O=C(c1ccc(F)cc1F)N1CCC[C@H](c2nc(-c3ccccn3)no2)C1 [Example 70, (2,4-Difluoro-phenyl)-[(S)-3-(3-pyridin-2-yl-[1,2,4]oxadiazol-5-yl)-piperidin-1-yl]-methanone]	1 to 10
Cc1cc(F)ccc1C(=O)N1CCC[C@H](c2nc(-c3ccccc3F)no2)C1 [Example 71, (4-Fluoro-2-methyl-phenyl)-{(S)-3-[3-(2-fluoro-phenyl)-[1,2,4]oxadiazol-5-yl]-piperidin-1-yl}-methanone]	1 to 10
Cc1ncc(-c2noc([C@H]3CCCN(C(=O)c4ccc(F)cc4)C3)n2)s1 [Example 72, (4-Fluoro-phenyl)-{(S)-3-[3-(2-methyl-thiazol-5-yl)-[1,2,4]oxadiazol-5-yl]-piperidin-1-yl}-methanone]	1 to 10
Cc1ncc(-c2noc([C@H]3CCCN(C(=O)c4ccc(F)nc4)C3)n2)s1 [Example 73, (6-Fluoro-pyridin-3-yl)-{(S)-3-[3-(2-methyl-thiazol-5-yl)-[1,2,4]oxadiazol-5-yl]-piperidin-1-yl}-methanone]	> 10
Cc1ncc(-c2noc([C@H]3CCCN(C(=O)c4ccc(F)cc4F)C3)n2)s1 [Example 74, (2,4-Difluoro-phenyl)-{(S)-3-[3-(2-methyl-thiazol-5-yl)-[1,2,4]oxadiazol-5-yl]-piperidin-1-yl}-methanone]	1 to 10
Cc1ncc(-c2noc([C@H]3CCCN(C(=O)c4ccc(F)c(F)c4)C3)n2)s1 [Example 75, (3,4-Difluoro-phenyl)-{(S)-3-[3-(2-methyl-thiazol-5-yl)-[1,2,4]oxadiazol-5-yl]-piperidin-1-yl}-methanone]	1 to 10
O=C(c1ccc(OC(F)(F)F)cc1)N1CCC[C@H](c2nc(-c3ccc(F)cc3)no2)C1 [Example 76, {(S)-3-[3-(4-Fluoro-phenyl)-[1,2,4]oxadiazol-5-yl]-piperidin-1-yl}-(4-trifluoromethoxy-phenyl)-methanone]	1 to 10

Results, then the compound that gave them:

EC50 [µM]	Structure (SMILES)
1 to 10	O=C(c1ccc(F)cc1)N1CCC=C(c2nc(-c3ccc(F)cc3)no2)C1 [Example 1, (4-Fluoro-phenyl)-{5-[3-(4-fluoro-phenyl)-[1,2,4]oxadiazol-5-yl]-3,6-dihydro-2H-pyridin-1-yl}-methanone]
< 1	Cc1oncc1C(=O)N1CCC[C@H](c2nc(-c3ccccc3)no2)C1 [Example 56, (5-Methyl-isoxazol-4-yl)-[(S)-3-(3-phenyl-[1,2,4]oxadiazol-5-yl)-piperidin-1-yl]-methanone]
< 1	O=C(c1ccc(F)cc1F)N1CCC[C@H](c2nc(-c3ccccc3)no2)C1 [Example 59, (2,4-Difluoro-phenyl)-[(S)-3-(3-phenyl-[1,2,4]oxadiazol-5-yl)-piperidin-1-yl]-methanone]
< 1	O=C(c1ccc(F)cc1F)N1CCC[C@H](c2nc(-c3ccccc3F)no2)C1 [Example 60, (2,4-Difluoro-phenyl)-{(S)-3-[3-(2-fluoro-phenyl)-[1,2,4]oxadiazol-5-yl]-piperidin-1-yl}-methanone]
< 1	Cc1oncc1C(=O)N1CCC[C@H](c2nc(-c3ccccc3F)no2)C1 [Example 61, {(S)-3-[3-(2-Fluoro-phenyl)-[1,2,4]oxadiazol-5-yl]-piperidin-1-yl}-(5-methyl-isoxazol-4-yl)-methanone]
< 1	O=C(c1ccc(F)nc1)N1CCC[C@H](c2nc(-c3ccccc3)no2)C1 [Example 62, (6-Fluoro-pyridin-3-yl)-[(S)-3-(3-phenyl-[1,2,4]oxadiazol-5-yl)-piperidin-1-yl]-methanone]
< 1	O=C(c1ccc(F)nc1)N1CCC[C@H](c2nc(-c3ccccc3F)no2)C1 [Example 64, {(S)-3-[3-(2-Fluoro-phenyl)-[1,2,4]oxadiazol-5-yl]-piperidin-1-yl}-(6-fluoro-pyridin-3-yl)-methanone]
< 1	O=C(c1ccc(F)nc1)N1CCC[C@H](c2nc(-c3ccc(F)cc3F)no2)C1 [Example 66, {(S)-3-[3-(2,4-Difluoro-phenyl)-[1,2,4]oxadiazol-5-yl]-piperidin-1-yl}-(6-fluoro-pyridin-3-yl)-methanone]
< 1	O=C(c1ccc(F)c(F)c1)N1CCC[C@H](c2nc(-c3ccc(F)cc3F)no2)C1 [Example 68, (3,4-Difluoro-phenyl)-{(S)-3-[3-(2,4-difluoro-phenyl)-[1,2,4]oxadiazol-5-yl]-piperidin-1-yl}-methanone]

System: not given
Assay: not given
Conditions: not given

melting point [°C]	Structure (SMILES)
138 to 140	O=C(c1ccc(F)cc1)N1CCC=C(c2nc(-c3ccc(F)cc3)no2)C1 [Example 1, (4-Fluoro-phenyl)-{5-[3-(4-fluoro-phenyl)-[1,2,4]oxadiazol-5-yl]-3,6-dihydro-2H-pyridin-1-yl}-methanone]
158 to 162	O=C(c1ccc(F)cc1)N1CCCC1Cc1nc(-c2ccc(F)cc2)no1 (stereo not drawn) [Example 2, (4-Fluoro-phenyl)-{2-[3-(4-fluoro-phenyl)-[1,2,4]oxadiazol-5-ylmethyl]-pyrrolidin-1-yl}-methanone]
144 to 146	N#Cc1cc(C(=O)N2CCC[C@H](c3nc(-c4ccc(F)cc4)no3)C2)ccc1F [Example 3, 2-Fluoro-5-{(S)-3-[3-(4-fluoro-phenyl)-[1,2,4]oxadiazol-5-yl]-piperidine-1-carbonyl}-benzonitrile]
139 to 141	O=C(C1CCSCC1)N1CCC[C@H](c2nc(-c3ccc(F)cc3)no2)C1 [Example 7, {(S)-3-[3-(4-Fluoro-phenyl)-[1,2,4]oxadiazol-5-yl]-piperidin-1-yl}-(tetrahydro-thiopyran-4-yl)-methanone]

— patent US20090197897A1, “Novel Oxadiazole Derivatives and Their Use as Positive Allosteric Modulators of Metabotropic Glutamate Receptors” (Addex Pharma SA, priority 2005, published 2009)
